The text below walks through data of ChEMBL document CHEMBL1687697 (ACS Med Chem Lett, 2010).

Activity calls are given as the source filed them. The calls are words filed in the database; no cut-off is given here.

This assay concerns the target Signal transducer and activator of transcription 3 (Homo sapiens) (UniProt P40763). Kind of assay: Inhibition of STAT3 in human HeLa cells after 24 hrs by luciferase reporter gene assay. It is filed as cell-based.

Chain of Signal transducer and activator of transcription 3 (Homo sapiens) (P40763 whole entry): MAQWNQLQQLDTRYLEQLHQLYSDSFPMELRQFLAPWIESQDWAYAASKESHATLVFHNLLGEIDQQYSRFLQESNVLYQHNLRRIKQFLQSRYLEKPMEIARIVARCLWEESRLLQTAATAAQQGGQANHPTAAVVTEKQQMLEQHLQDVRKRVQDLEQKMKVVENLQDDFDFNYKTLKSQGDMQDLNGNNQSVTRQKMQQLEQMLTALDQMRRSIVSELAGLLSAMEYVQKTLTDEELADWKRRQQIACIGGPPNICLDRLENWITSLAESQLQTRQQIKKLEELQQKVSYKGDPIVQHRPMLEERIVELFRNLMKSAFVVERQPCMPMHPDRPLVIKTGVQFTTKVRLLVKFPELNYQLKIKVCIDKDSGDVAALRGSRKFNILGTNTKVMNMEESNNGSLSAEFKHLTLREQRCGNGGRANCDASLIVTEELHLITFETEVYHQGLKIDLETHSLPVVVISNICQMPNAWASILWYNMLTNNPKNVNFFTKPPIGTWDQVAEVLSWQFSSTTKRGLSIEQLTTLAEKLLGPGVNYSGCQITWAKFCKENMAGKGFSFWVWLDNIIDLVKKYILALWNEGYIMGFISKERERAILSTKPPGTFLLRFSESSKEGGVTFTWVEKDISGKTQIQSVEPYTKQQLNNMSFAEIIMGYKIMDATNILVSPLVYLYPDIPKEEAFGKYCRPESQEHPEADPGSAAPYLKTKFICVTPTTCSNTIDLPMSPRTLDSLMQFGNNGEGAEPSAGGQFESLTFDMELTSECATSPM

Consider `COc1ccc(C(=O)N2CCCC2=O)cc1`, for which the inhibition result is “inactive”.
